The values that follow come from US12692233B2, “Anthelmintic compounds comprising a pyridine structure” (Intervet Inc., priority 2020, dated 2026).

Where only a bound is given, the exact number is not on record here.

One assay has as its system Haemonchus contortus. Kind of assay: In vitro assay Haemonchus contortus, motility of exsheathed L3 larvae. It is filed as cell-based. As to conditions: 168 h, 7 days incubation, motility reduced by 50% with respect to positive control ivermectin, read-out: ED50 against Haemonchus contortus. The method, then: Solutions of compounds with declining concentrations in DMSO were prepared, diluted with nutrient medium and distributed to 96 well microtiterplates. […]3 larvae of Haemonchus contortus were incubated for 20 min at 37° C. in a water bath, separated by centrifugation and added to the wells with 300 Larvae/well. After incubation for 7 days motility was assessed by automated microscopy. Ivermectin was used as positive control, DMSO as negative control and ED50 values were calculated which represent the concentration for an individual compound that reduces motility by 50% with respect to the […].

The subject of the next assay is Dirofilaria immitis. Briefly: In vitro assay Dirofilaria immitis L1 (microfilaria), motility. It counts as cell-based. As to conditions: 72 h, 3 days incubation, reduction in motility vs DMSO. Here is the method:
Approximately 500 D. immitis microfilaria were added to a microtiter plate containing a nutrient medium and the test compound in DMSO at varying concentrations. After incubation for 3 days, activity was evaluated as reduction in motility as compared to DMSO as negative control. Compounds were tested in duplicates. Based on the concentration response curves EC50 values were calculated.

The next assay has as its system Ascaridia galli. Briefly: In vitro assay Ascaridia galli larval stage 3. It is filed as cell-based. The conditions noted are these: larval stage 3, 20 larvae per well, microscopic examination, read-out: MEC (minimum effective concentration) against Ascaridia galli L3. From the text: (§1) […] galli (intestinal roundworm of chicken), larval stage 3 (“L3”); and Oesophagostumum dentatum (nodular worm of swine), larval stages 3 and 4 (respectively “L3” and “L4”) where suspended in a nutrient medium and distributed to 96 well plates with 20 larvae per well. The wells were spiked DMSO solutions of the compounds with declining concentration.

Assay [1] deals with T1, human Maxi K channel (BK channel) (Homo sapiens, UniProt Q12791).
T1 construct: expressed in transfected cells; host or cells: CHO K1
Briefly: Agonistic activity at the human Maxi K channel (BK channel), FLIPR membrane potential in CHO K1 cells. The conditions noted are these: CHO K1 cells stably transfected with KCNMA1 and beta1 (KCNMB1) subunits, membrane potential dye. It counts as cell-based. The text has this:
A CHO K1 cell line was stably transfected with the KCNMA1 (KCa1.1, U11058) and beta1 (KCNMB1) subunits of the human Maxi K channel (Ponte et al, Molecular Pharmacology 2012, 81(4), 567-577).
The complete measurement takes 150 s.

Another assay has as its target C. elegans Slo-1a (Caenorhabditis elegans, UniProt Q95V25). Briefly: Agonistic activity at C. elegans Slo-1a, FLIPR membrane potential in CHO K1 cells. As to conditions: EC50 agonistic activity at C. elegans Slo-1a, CHO K1 cells stably transfected with slo-1a, membrane potential dye.
Assay [2] relates to Oesophagostumum dentatum. Briefly: In vitro assay Oesophagostumum dentatum larval stage 3. It is filed as cell-based. As to conditions: larval stage 3, 20 larvae per well, microscopic examination; read-out: MEC (minimum effective concentration) against Oesophagostumum dentatum L3.
Description: as §1

Assay [3] deals with Oesophagostumum dentatum. Briefly: In vitro assay Oesophagostumum dentatum larval stage 4. It is filed as cell-based. The conditions noted are these: larval stage 4, 20 larvae per well, microscopic examination; read-out: MEC (minimum effective concentration) against Oesophagostumum dentatum L4.
Description: as §1

The subject of the next assay is Acanthocheilonema viteae. Kind of assay: In vitro assay Acanthocheilonema viteae L1 (microfilaria), motility. It is filed as cell-based. The conditions noted are these: 72 h, 3 days incubation, reduction in motility vs DMSO. The method, then: Approximately 500 A. viteae microfilaria were added to a microtiter plate containing a nutrient medium and the test compound in DMSO at varying concentrations. After incubation for 3 days, activity was evaluated as reduction in motility as compared to DMSO as negative control. Compounds were tested in duplicates. Based on the concentration response curves EC50 values were calculated.

Chain of C. elegans Slo-1a (Q95V25 whole entry): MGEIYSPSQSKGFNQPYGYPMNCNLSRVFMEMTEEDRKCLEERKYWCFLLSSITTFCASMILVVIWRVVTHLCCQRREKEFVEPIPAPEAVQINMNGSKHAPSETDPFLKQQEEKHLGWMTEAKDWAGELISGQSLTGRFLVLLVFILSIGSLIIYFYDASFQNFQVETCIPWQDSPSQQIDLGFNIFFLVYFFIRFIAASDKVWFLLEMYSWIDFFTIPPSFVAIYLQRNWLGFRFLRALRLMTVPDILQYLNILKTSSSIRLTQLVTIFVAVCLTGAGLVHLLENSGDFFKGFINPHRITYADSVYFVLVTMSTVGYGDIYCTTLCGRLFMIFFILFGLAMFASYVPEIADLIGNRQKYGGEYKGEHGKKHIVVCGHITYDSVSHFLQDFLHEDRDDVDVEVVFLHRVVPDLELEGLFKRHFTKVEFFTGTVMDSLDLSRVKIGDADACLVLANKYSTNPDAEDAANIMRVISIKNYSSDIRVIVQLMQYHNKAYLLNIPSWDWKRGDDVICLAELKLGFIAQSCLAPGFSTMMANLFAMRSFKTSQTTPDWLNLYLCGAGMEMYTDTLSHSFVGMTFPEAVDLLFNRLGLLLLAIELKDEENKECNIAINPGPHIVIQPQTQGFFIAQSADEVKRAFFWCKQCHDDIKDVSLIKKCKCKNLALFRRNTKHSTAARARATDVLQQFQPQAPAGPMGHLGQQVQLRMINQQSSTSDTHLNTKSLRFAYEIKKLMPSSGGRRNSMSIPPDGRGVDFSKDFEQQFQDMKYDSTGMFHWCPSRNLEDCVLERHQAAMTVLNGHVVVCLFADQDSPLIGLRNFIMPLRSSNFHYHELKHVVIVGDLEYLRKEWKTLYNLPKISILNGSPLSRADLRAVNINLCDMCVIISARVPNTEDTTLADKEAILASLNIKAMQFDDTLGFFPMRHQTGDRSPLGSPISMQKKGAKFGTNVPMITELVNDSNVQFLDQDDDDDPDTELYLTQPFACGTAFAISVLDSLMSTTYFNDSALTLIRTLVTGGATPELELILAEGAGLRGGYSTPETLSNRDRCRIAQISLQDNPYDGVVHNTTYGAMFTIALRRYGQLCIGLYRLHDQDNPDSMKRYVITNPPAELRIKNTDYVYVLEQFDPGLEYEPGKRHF
T1 sequence (Q12791 1-1178 isoform Q12791-5): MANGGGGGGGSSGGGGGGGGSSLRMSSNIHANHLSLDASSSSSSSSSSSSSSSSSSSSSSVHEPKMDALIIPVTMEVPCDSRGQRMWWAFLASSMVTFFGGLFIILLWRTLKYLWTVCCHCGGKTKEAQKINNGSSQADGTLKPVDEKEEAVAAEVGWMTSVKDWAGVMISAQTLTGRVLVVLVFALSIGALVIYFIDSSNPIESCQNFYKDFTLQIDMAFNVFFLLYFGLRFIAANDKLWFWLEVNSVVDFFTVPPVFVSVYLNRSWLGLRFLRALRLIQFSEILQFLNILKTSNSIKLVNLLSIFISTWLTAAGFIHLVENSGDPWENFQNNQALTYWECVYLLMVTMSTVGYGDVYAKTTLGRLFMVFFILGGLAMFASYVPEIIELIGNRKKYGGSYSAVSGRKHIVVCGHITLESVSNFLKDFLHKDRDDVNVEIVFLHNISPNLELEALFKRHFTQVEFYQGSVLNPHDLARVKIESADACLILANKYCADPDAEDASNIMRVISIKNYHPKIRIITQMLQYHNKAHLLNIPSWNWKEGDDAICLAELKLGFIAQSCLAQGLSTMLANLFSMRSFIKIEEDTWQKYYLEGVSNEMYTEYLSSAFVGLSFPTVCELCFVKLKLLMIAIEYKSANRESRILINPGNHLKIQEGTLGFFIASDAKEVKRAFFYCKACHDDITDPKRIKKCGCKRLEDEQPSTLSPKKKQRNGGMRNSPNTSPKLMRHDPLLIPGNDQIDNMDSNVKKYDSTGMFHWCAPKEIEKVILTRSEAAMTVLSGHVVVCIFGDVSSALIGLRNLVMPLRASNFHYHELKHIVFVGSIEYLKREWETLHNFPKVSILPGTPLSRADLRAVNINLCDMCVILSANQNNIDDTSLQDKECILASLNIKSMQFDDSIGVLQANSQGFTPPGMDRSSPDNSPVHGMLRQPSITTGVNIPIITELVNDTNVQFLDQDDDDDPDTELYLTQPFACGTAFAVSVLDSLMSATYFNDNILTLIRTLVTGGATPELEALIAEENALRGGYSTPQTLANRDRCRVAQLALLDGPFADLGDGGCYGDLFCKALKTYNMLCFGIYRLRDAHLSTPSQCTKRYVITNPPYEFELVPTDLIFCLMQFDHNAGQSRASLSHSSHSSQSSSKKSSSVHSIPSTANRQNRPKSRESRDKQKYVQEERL
T1 sequence (Q16558 whole entry partner): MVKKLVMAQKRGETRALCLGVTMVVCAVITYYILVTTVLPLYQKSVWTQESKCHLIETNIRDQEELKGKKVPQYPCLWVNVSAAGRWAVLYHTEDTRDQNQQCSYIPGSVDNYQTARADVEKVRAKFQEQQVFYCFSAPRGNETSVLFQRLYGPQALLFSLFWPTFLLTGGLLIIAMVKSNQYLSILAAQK
Description for C. elegans Slo-1a: A CHO K1 cell line stably transfected with the Caenorhabditis elegans slo-1a (accession no Y51A2D.19a) was established. Cells were seeded in microtiter plates (black 384-well MTP, clear bottom) in a concentration of 10,000 cells/well in 25 μl medium and cultured for 20 to 24 hours at 37° C. and 5% CO2. After incubation, 25 μl of FMP-dye Blue-Tyrode's was added to each well and incubated at room temperature for 30 min. Ten minutes after addition of 12.5 μl compound solution, the plates are transferred to the FLIPR for measurement.
For the membrane potential measurements, the plates were placed in the FLIPR Penta (Molecular Devices). The baseline measurement of the fluorescence was stared for 20 sec (Exc. 510-545 nm, Emm. 565-625 nm). Potential channel opening measurement was started by addition of 25 μl of KCl-Tyrode (final assay concentration of the KCl-Tyrode: 70 mM KCl, 2 mM CaCl2, 1 mM MgCl2, 0.8 mM NaH2PO4, 5 mM Glucose, 28 mM Hepes, pH 7.4, including the voltage sensitive dye). The complete measurement takes 150 s.
EC50 values were determined in triplicate utilizing compound dilution series. The data were determined at least in two independent tests. The data were proceeded by using the ActivityBase XE Runner software (IDBS) for curve fitting and calculation of the half-maximal effective concentration.

`CN(C)c1cc(Sc2cc(Cl)cc(Cl)c2)ncc1C(=O)N[C@@H]1CCOc2ccccc21` [Compound 18]: the EC50 was below 50 µM in the assay on Haemonchus contortus, below 10 µM with Dirofilaria immitis and above 30 µM in assay [1]. Further, in the assay on Ascaridia galli, the minimal effective concentration was at most 50 µM.

As to `O=C(N[C@H]1CCCc2ccccc21)c1cnc(Sc2cccc(Cl)c2Cl)cc1N1CCOCC1` [Compound 21], the EC50 at C. elegans Slo-1a is below 1 µM; in the assay with Haemonchus contortus, below 50 µM; in assay [1], above 30 µM.

Turning to `O=C(N[C@@H]1CCOc2ccccc21)c1cnc(Oc2cc(Cl)cc(Cl)c2)cc1N1CCOCC1` [Compound 24], the minimal effective concentration in the assay with Oesophagostumum dentatum [2] and with Oesophagostumum dentatum [3] was at most 50 µM in each case. Moreover, the EC50 is below 10 µM in the assay on Dirofilaria immitis and above 30 µM in assay [1].

Turning to `CN(C)c1cc(Oc2cccc(Cl)c2Cl)ncc1C(=O)N[C@H]1CCCc2ccccc21` [Compound 34], the EC50 on C. elegans Slo-1a is below 1 µM; with Haemonchus contortus it was below 50 µM; in assay [1], above 30 µM.

Take `CN(C)c1cc(Oc2cccc(Cl)c2Cl)ncc1C(=O)N[C@H]1CCc2ccccc21` [Compound 35]: the figures for the EC50 (at C. elegans Slo-1a; in the assay on Haemonchus contortus; in assay [1]) were below 1 µM, below 50 µM and above 30 µM, respectively.

`CN(C)c1cc(Oc2cccc(Cl)c2Cl)ncc1C(=O)Nc1cccc2ccccc12` [Compound 36]: the minimal effective concentration in the assay with Oesophagostumum dentatum [2] and in the assay on Oesophagostumum dentatum [3] was at most 50 µM each time. Besides, the values for the EC50 (with Acanthocheilonema viteae; in the assay on Dirofilaria immitis; in assay [1]) were below 10 µM, below 10 µM and above 30 µM, respectively.

`CN(C)c1cc(Oc2cccc(Cl)c2Cl)ncc1C(=O)Nc1csc2ccccc12` [Compound 37]: the EC50 with Acanthocheilonema viteae is below 10 µM; in assay [1], above 30 µM. The minimal effective concentration in the assay with Oesophagostumum dentatum [3] and with Ascaridia galli was at most 50 µM each time.

As for `CN(C)c1cc(Sc2cccc(Cl)c2Cl)ncc1C(=O)N[C@@H]1CCOc2ccccc21` [Compound 39], in the assay with Oesophagostumum dentatum [2], the minimal effective concentration was at most 50 µM. Further, the EC50 in the assay with Acanthocheilonema viteae is below 10 µM; in the assay with Dirofilaria immitis it was below 10 µM; in assay [1], above 30 µM.

With `O=C(Nc1csc2ccccc12)c1cnc(Oc2cccc(Cl)c2Cl)cc1N1CCOCC1` [Compound 46], the EC50 in the assay with Acanthocheilonema viteae is below 10 µM; in the assay with Dirofilaria immitis, below 10 µM; in assay [1], above 30 µM.

Turning to `CSc1cc(Sc2cccc(Cl)c2Cl)ncc1C(=O)N[C@H]1CCOc2ccccc21` [Compound 52], the figures for the EC50 (at C. elegans Slo-1a; in the assay with Haemonchus contortus; in assay [1]) were below 10 µM, below 50 µM and above 30 µM, respectively. Also, the minimal effective concentration in the assay on Oesophagostumum dentatum [2] and in the assay with Ascaridia galli was at most 50 µM each time.

For the molecule `CSc1cc(Sc2cc(Cl)cc(Cl)c2)ncc1C(=O)N[C@@H]1CCOc2ccccc21` [Compound 55], the values for the EC50 (in the assay on Haemonchus contortus; in assay [1]) were below 50 µM and above 30 µM, respectively.

On to `CSc1cc(Oc2cccc(Cl)c2Cl)ncc1C(=O)N[C@H]1CCOc2ccccc21` [Compound 57], for which the values for the EC50 (in the assay with Acanthocheilonema viteae; in assay [1]) were below 10 µM and above 30 µM, respectively. Moreover, the minimal effective concentration in the assay on Ascaridia galli is at most 50 µM.

Regarding `COc1cc(Sc2cccc(Cl)c2Cl)ncc1C(=O)N[C@H]1CCc2ccccc21` [Compound 67], the EC50 on C. elegans Slo-1a was below 10 µM; with Acanthocheilonema viteae it was below 10 µM; in assay [1], above 30 µM. In addition, the minimal effective concentration in the assay with Oesophagostumum dentatum [3] and in the assay on Ascaridia galli was at most 50 µM throughout.

With `CCOc1cc(Sc2cccc(Cl)c2Cl)ncc1C(=O)N[C@H]1CCc2ccccc21` [Compound 72], the EC50 on C. elegans Slo-1a was below 10 µM; in the assay on Haemonchus contortus, below 50 µM; with Acanthocheilonema viteae, below 10 µM; in the assay with Dirofilaria immitis it was below 10 µM; in assay [1], above 30 µM. Also, in the assay on Ascaridia galli, the minimal effective concentration was at most 50 µM.

Regarding `CCSc1cc(Sc2cc(Cl)cc(Cl)c2)ncc1C(=O)N[C@H]1CCc2ccccc21` [Compound 73], the minimal effective concentration with Oesophagostumum dentatum [2] is at most 50 µM. Further, the EC50 in the assay on Haemonchus contortus is below 50 µM; in assay [1], above 30 µM.

For the molecule `COc1cc(Sc2cc(Cl)cc(Cl)c2)ncc1C(=O)N[C@H]1CCCc2ccccc21` [Compound 82], the EC50 was below 10 µM on C. elegans Slo-1a; below 50 µM in the assay with Haemonchus contortus; below 10 µM with Acanthocheilonema viteae; below 10 µM in the assay with Dirofilaria immitis; above 30 µM in assay [1]. Besides, the minimal effective concentration in the assay on Oesophagostumum dentatum [3] is at most 50 µM.

`COc1cc(Sc2cc(Cl)cc(Cl)c2)ncc1C(=O)N[C@H]1CCc2ccccc21` [Compound 84]: the figures for the EC50 (at C. elegans Slo-1a; with Acanthocheilonema viteae; in assay [1]) were below 10 µM, below 10 µM and above 30 µM, respectively. Further, the minimal effective concentration in the assay with Oesophagostumum dentatum [2] and in the assay on Oesophagostumum dentatum [3] was at most 50 µM throughout.

Regarding `CCOc1cc(Oc2cc(Cl)cc(Cl)c2)ncc1C(=O)N[C@H]1CCc2ccccc21` [Compound 90], the minimal effective concentration in the assay with Oesophagostumum dentatum [2] and in the assay on Ascaridia galli was at most 50 µM each time. Further, the EC50 is below 10 µM with Acanthocheilonema viteae and above 30 µM in assay [1].

In the case of `COc1cc(Oc2cccc(Cl)c2Cl)ncc1C(=O)N[C@H]1CCc2ccccc21` [Compound 94], the EC50 in the assay with Acanthocheilonema viteae is below 10 µM; in the assay on Dirofilaria immitis it was below 10 µM; in assay [1], above 30 µM.

Turning to `COc1cc(Oc2cccc(Cl)c2Cl)ncc1C(=O)N[C@H]1CCOc2ccccc21` [Compound 95], the EC50 in the assay on Acanthocheilonema viteae was below 10 µM; in the assay with Dirofilaria immitis, below 10 µM; in assay [1], above 30 µM. The minimal effective concentration in the assay on Ascaridia galli was at most 50 µM.

Turning to `CCOc1cc(Sc2cc(Cl)cc(Cl)c2)ncc1C(=O)N[C@H]1CCc2ccccc21` [Compound 97], the EC50 is below 10 µM in the assay on Acanthocheilonema viteae and above 30 µM in assay [1].

As to `CN(C)c1cc([S+]([O-])c2cc(Cl)cc(Cl)c2)ncc1C(=O)N[C@H]1CCOc2ccccc21` (stereo partly drawn) [Compound 103], the EC50 was below 10 µM at C. elegans Slo-1a, below 10 µM with Dirofilaria immitis and above 30 µM in assay [1]. Further, the minimal effective concentration in the assay with Oesophagostumum dentatum [2], with Oesophagostumum dentatum [3] and in the assay on Ascaridia galli was at most 50 µM in each case.
